Measured values taken from patent US20240218022A1, “ANTI-VISTA MACROCYCLIC PEPTIDES AND COMPOSITIONS” (BRISTOL-MYERS SQUIBB COMPANY, priority 2022, published 2024).
Where two headings read alike, the source gives them in different places. Starred links: 1 amine or outer side, 2 acyl side, 3 side chain; linkers in the order of their positions; H or OH if unused. Positions of bridges follow the written chain, without caps; N, C: chain ends. Non-standard residues stand in square brackets, D forms with d. Residues, ends and D or L forms follow the SMILES beside them. ξ: configuration not given here. Phe(4-COOH) = N[C@@H](Cc1ccc(C(=O)O)cc1)C(=O)O; Phe(3-Cl) = N[C@@H](Cc1cccc(Cl)c1)C(=O)O; Phe(3-Me) = Cc1cccc(C[C@H](N)C(=O)O)c1; γGlu = O=C(O)[C@H](CCC(=O)[*:2])N[*:1]; 2Nal = N[C@@H](Cc1ccc2ccccc2c1)C(=O)O; βAsp = O=C(O)[C@H](CC(=O)[*:2])N[*:1]; Ile(3ξ) = CCC(C)[C@H](N)C(=O)O; Ahp(2) = CCCCC[C@H](N)C(=O)O; NMeNle = CCCC[C@H](NC)C(=O)O; Tle = CC(C)(C)[C@H](N)C(=O)O; NHexGly = CCCCCCNCC(=O)O; Nle = CCCC[C@H](N)C(=O)O; Orn = NCCC[C@H](N)C(=O)O; Aun = NCCCCCCCCCCC(=O)O; AEEA = NCCOCCOCC(=O)O; ξP = O=C(O)C1CCCN1

Target: T1, mouse VISTA (mVISTA) (Mus musculus, UniProt Q9D659)
T1 construct: expressed in transfected cells; host or cells: Human embryonic kidney 293T cells
T1 sequence (Q9D659 33-308): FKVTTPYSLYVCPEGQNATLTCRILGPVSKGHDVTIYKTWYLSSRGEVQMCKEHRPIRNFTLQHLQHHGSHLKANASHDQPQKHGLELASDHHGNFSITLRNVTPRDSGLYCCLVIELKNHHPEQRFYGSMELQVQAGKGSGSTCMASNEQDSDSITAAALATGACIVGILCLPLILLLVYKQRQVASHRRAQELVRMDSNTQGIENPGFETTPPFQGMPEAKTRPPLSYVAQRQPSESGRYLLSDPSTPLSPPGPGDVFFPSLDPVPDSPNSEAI
Assay: Cell-Based Binding High-Content Assay For mVISTA (HC CBA mVISTA)
Procedure, shortened: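 mVISTA-293T, 4,000 cells/well; cpd ± washout step; biotin-peptide 2 nM final, 30 min RT; SA-Alexa 647 30 min; formaldehyde/Hoechst fix; HCS imaging; 4PL IC50.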

[1] = 293T cells expressing mouse VISTA, competition with biotinylated peptide (2 nM), read-out: HC CBA mVISTA IC50

| Compound | IC50 (read-out: HC CBA mVISTA IC50) [nM] | also measured |
| --- | --- | --- |
| CCCCCCN1CC(=O)N[C@@H](Cc2ccc(O)cc2)C(=O)N[C@@H](CC(C)C)C(=O)N[C@@H](CC(N)=O)C(=O)N[C@@H](CCCNC(=N)N)C(=O)N(C)[C@@H](CCCC)C(=O)N[C@@H](CCCCC)C(=O)N2CCC[C@H]2C(=O)N[C@@H](C(C)(C)C)C(=O)N[C@@H](CO)C(=O)N[C@H](C(=O)N[C@@H](CC(=O)NCCOCCOCC(=O)N[C@@H](CC(=O)O)C(=O)NCCOCCOCC(=O)NCCCCCCCCCCC(=O)O)C(=O)O)CSCC(=O)N[C@@H](Cc2ccccc2)C(=O)N[C@@H](Cc2cccc(C)c2)C(=O)N[C@@H](CC(=O)O)C1=O [compound 2076] ({CH2CO}-F[Phe(3-Me)]D[NHexGly]YLNR[NMeNle][Ahp(2)]P[Tle]SC[βAsp][AEEA]D[AEEA][Aun]-OH; thioether N-14) |  | IC50 (cell-based binding high-content assay, mVISTA, read-out: HC CBA miPrISTA IC50): 38.1 nM |
| CCCCCCN1CC(=O)N[C@@H](Cc2ccc(O)cc2)C(=O)N[C@@H](CC(C)C)C(=O)NCC(=O)N[C@@H](CCCNC(=N)N)C(=O)N[C@@H](Cc2ccc(O)cc2)C(=O)N[C@@H](CCCCC)C(=O)N2CCC[C@H]2C(=O)N[C@@H](C(C)C)C(=O)N[C@@H](CC(=O)O)C(=O)N[C@H](C(=O)NCC(N)=O)CSCC(=O)N[C@@H](Cc2ccccc2)C(=O)N[C@@H](Cc2ccc(O)cc2)C(=O)N[C@@H](CC(=O)O)C1=O [Example 1096] ({CH2CO}-FYD[NHexGly]YLGRY[Ahp(2)]PVDCG-NH2; thioether N-14) |  | IC50 [1]: 15.5 nM |
| CCCCCCN1CC(=O)N[C@@H](Cc2ccc(O)cc2)C(=O)N[C@@H](CCCCC)C(=O)N[C@@H](CC(=O)O)C(=O)N[C@@H](CCCNC(=N)N)C(=O)N(C)[C@@H](CCCC)C(=O)N[C@@H](CCCCC)C(=O)N2CCC[C@H]2C(=O)N[C@@H](C(C)C)C(=O)N[C@@H](CC(=O)O)C(=O)N[C@H](C(=O)N[C@H](CC(=O)O)C(N)=O)CSCC(=O)N[C@@H](Cc2ccccc2)C(=O)N[C@@H](Cc2ccc(O)cc2)C(=O)N[C@@H](CC(=O)O)C1=O [Example 1076] ({CH2CO}-FYD[NHexGly]Y[Ahp(2)]DR[NMeNle][Ahp(2)]PVDC[dD]-NH2; thioether N-14) |  | IC50 (293T cells expressing mouse VISTA, competition with biotinylated peptide (2 nM), read-out: CBA mVISTA IC50): 21.5 nM |
| CCCCCCN1CC(=O)N[C@@H](Cc2ccc(O)cc2)C(=O)N[C@@H](C(C)C)C(=O)NCC(=O)N[C@@H](CCCNC(=N)N)C(=O)N[C@@H](CC(C)C)C(=O)N[C@@H](CCCCC)C(=O)N2CCC[C@H]2C(=O)N[C@@H](C(C)C)C(=O)N[C@@H](CC(=O)O)C(=O)N[C@H](C(=O)NCC(N)=O)CSCC(=O)N[C@@H](Cc2ccccc2)C(=O)N[C@@H](Cc2ccc3ccccc3c2)C(=O)N[C@@H](CC(=O)O)C1=O [compound 1324] ({CH2CO}-F[2Nal]D[NHexGly]YVGRL[Ahp(2)]PVDCG-NH2; thioether N-14) | 48.2 |  |
| CCCCCCN1CC(=O)N[C@@H](Cc2ccc(O)cc2)C(=O)N[C@@H](CCCC)C(=O)N[C@@H](CC(=O)O)C(=O)N[C@@H](CCCNC(=N)N)C(=O)N[C@@H](CC(C)C)C(=O)N[C@@H](CCCCC)C(=O)N2CCCC2C(=O)N[C@@H](C(C)C)C(=O)N[C@@H](CC(N)=O)C(=O)N[C@H](C(=O)NCC(=O)N[C@@H](CC(=O)NCCOCCOCC(=O)N[C@@H](CC(=O)O)C(=O)NCCOCCOCC(=O)NCCCCCCCCCCC(=O)O)C(=O)O)CSCC(=O)N[C@@H](Cc2ccccc2)C(=O)N[C@@H](Cc2ccc(O)cc2)C(=O)N[C@@H](CC(=O)O)C1=O (some centres unmarked) [compound 2108] ({CH2CO}-FYD[NHexGly]Y[Nle]DRL[Ahp(2)][ξP]VNCG[βAsp][AEEA]D[AEEA][Aun]-OH; thioether N-14) | 14.4 |  |
| CCCCCCN1CC(=O)N[C@@H](Cc2ccc(O)cc2)C(=O)N[C@@H](CCCCC)C(=O)NCC(=O)N[C@@H](CCCNC(=N)N)C(=O)N[C@@H](CC(C)C)C(=O)N[C@@H](CCCCC)C(=O)N2CCC[C@H]2C(=O)N[C@@H](C(C)C)C(=O)N2CCC[C@H]2C(=O)N[C@H](C(=O)NCC(N)=O)CSCC(=O)N[C@@H](Cc2ccccc2)C(=O)N[C@@H](Cc2ccc(O)cc2)C(=O)N[C@@H](CC(=O)O)C1=O [Example 1100] ({CH2CO}-FYD[NHexGly]Y[Ahp(2)]GRL[Ahp(2)]PVPCG-NH2; thioether N-14) |  | IC50 [1]: 17.6 nM |
| CCCCCCN1CC(=O)N[C@@H](Cc2ccc(O)cc2)C(=O)N[C@@H](CCCC)C(=O)N[C@@H](CC(=O)O)C(=O)N[C@@H](CCCN)C(=O)N(C)[C@@H](CCCC)C(=O)N[C@@H](CCCCC)C(=O)N2CCC[C@H]2C(=O)N[C@@H](C(C)(C)C)C(=O)N[C@@H](CC(=O)O)C(=O)N[C@H](C(=O)N[C@@H](CC(=O)O)C(N)=O)CSCC(=O)N[C@@H](Cc2ccccc2)C(=O)N[C@@H](Cc2c[nH]c3ccccc23)C(=O)N[C@@H](CC(=O)O)C1=O [Example 1372] ({CH2CO}-FWD[NHexGly]Y[Nle]D[Orn][NMeNle][Ahp(2)]P[Tle]DCD-NH2; thioether N-14) | 16.4 |  |
| CCCCCCN1CC(=O)N[C@@H](Cc2ccc(O)cc2)C(=O)N[C@@H](CC(C)C)C(=O)N[C@@H](CC(N)=O)C(=O)N[C@@H](CCCNC(=N)N)C(=O)N(C)[C@@H](CCCC)C(=O)N[C@@H](CCCCC)C(=O)N2CCC[C@H]2C(=O)N[C@@H](C(C)(C)C)C(=O)N[C@@H](CO)C(=O)N[C@H](C(=O)N[C@@H](CCC(=O)NCCCCCCCCCCC(=O)O)C(=O)O)CSCC(=O)N[C@@H](Cc2ccccc2)C(=O)N[C@@H](Cc2c[nH]c3ccccc23)C(=O)N[C@@H](CC(=O)O)C1=O [Example 2131] ({CH2CO}-FWD[NHexGly]YLNR[NMeNle][Ahp(2)]P[Tle]SC[γGlu][Aun]-OH; thioether N-14) | 38 |  |
| CCCCCCN1CC(=O)N[C@@H](Cc2ccc(O)cc2)C(=O)N[C@@H](CCCC)C(=O)N[C@@H](CC(N)=O)C(=O)N[C@@H](CCCNC(=N)N)C(=O)N(C)[C@@H](CCCC)C(=O)N[C@@H](CCCCC)C(=O)N2CCC[C@H]2C(=O)N[C@@H](C(C)(C)C)C(=O)N[C@@H](CO)C(=O)N[C@H](C(=O)N[C@@H](CC(N)=O)C(=O)O)CSCC(=O)N[C@@H](Cc2ccccc2)C(=O)N[C@@H](Cc2c[nH]c3ccccc23)C(=O)N[C@@H](CC(=O)O)C1=O [Example 1402] ({CH2CO}-FWD[NHexGly]Y[Nle]NR[NMeNle][Ahp(2)]P[Tle]SCN-OH; thioether N-14) | 33.8 |  |
| CCCCCCN1CC(=O)N[C@@H](Cc2ccc(O)cc2)C(=O)N[C@@H](C(C)CC)C(=O)NCC(=O)N[C@@H](CCCNC(=N)N)C(=O)N[C@@H](CC(C)C)C(=O)N[C@@H](CCCCC)C(=O)N2CCC[C@H]2C(=O)N[C@@H](C(C)C)C(=O)N[C@@H](CO)C(=O)N[C@H](C(=O)NCC(=O)O)CSCC(=O)N[C@@H](Cc2ccccc2)C(=O)N[C@@H](Cc2ccc(O)cc2)C(=O)N[C@@H](CC(=O)O)C1=O (some centres unmarked) [Example 1059] ({CH2CO}-FYD[NHexGly]Y[Ile(3ξ)]GRL[Ahp(2)]PVSCG-OH; thioether N-14) |  | IC50 [1]: 30 nM |
| CCCCCCN1CC(=O)N[C@@H](Cc2ccc(O)cc2)C(=O)N[C@@H](CC(C)C)C(=O)N[C@@H](CC(N)=O)C(=O)N[C@@H](CCCNC(=N)N)C(=O)N(C)[C@@H](CCCC)C(=O)N[C@@H](CCCCC)C(=O)N2CCC[C@H]2C(=O)N[C@@H](C(C)C)C(=O)N[C@@H](CO)C(=O)N[C@H](C(=O)NCC(N)=O)CSCC(=O)N[C@@H](Cc2cccc(Cl)c2)C(=O)N[C@@H](Cc2ccc(O)cc2)C(=O)N[C@@H](CC(=O)O)C1=O [compound 1208] ({CH2CO}-[Phe(3-Cl)]YD[NHexGly]YLNR[NMeNle][Ahp(2)]PVSCG-NH2; thioether N-14) | 27.7 |  |
| CCCCCCN1CC(=O)N[C@@H](Cc2ccc(O)cc2)C(=O)N[C@@H](CCCC)C(=O)NCC(=O)N[C@@H](CCCNC(=N)N)C(=O)N[C@@H](CC(C)C)C(=O)N[C@@H](CCCCC)C(=O)N2CCC[C@H]2C(=O)N[C@@H](C(C)C)C(=O)N[C@@H](CC(=O)O)C(=O)N[C@H](C(=O)NCC(=O)NCCOCCOCC(=O)N[C@@H](CC(=O)O)C(=O)NCCOCCOCC(=O)NCCCCCCCCCCC(=O)O)CSCC(=O)N[C@@H](Cc2cccc(C)c2)C(=O)N[C@@H](Cc2ccc(O)cc2)C(=O)N[C@@H](CC(=O)O)C1=O [compound 2014] ({CH2CO}-[Phe(3-Me)]YD[NHexGly]Y[Nle]GRL[Ahp(2)]PVDCG[AEEA]D[AEEA][Aun]-OH; thioether N-14) |  | IC50 (cell-based binding high-content assay, mVISTA, read-out: HC CBA miPr ISTA IC50): 16.4 nM |
| CCCCCCN1CC(=O)N[C@@H](Cc2ccc(O)cc2)C(=O)N[C@@H](CC(C)C)C(=O)N[C@@H](CC(N)=O)C(=O)N[C@@H](CCCN)C(=O)N(C)[C@@H](CCCC)C(=O)N[C@@H](CCCCC)C(=O)N2CCC[C@H]2C(=O)N[C@@H](C(C)(C)C)C(=O)N[C@@H](CO)C(=O)N[C@H](C(=O)NCCOCCOCC(=O)N[C@@H](CCC(=O)NCCOCCOCC(=O)NCCCCCCCCCCC(=O)O)C(=O)O)CSCC(=O)N[C@@H](Cc2ccccc2)C(=O)N[C@@H](Cc2ccc(O)cc2)C(=O)N[C@@H](CC(=O)O)C1=O [compound 2278] ({CH2CO}-FYD[NHexGly]YLN[Orn][NMeNle][Ahp(2)]P[Tle]SC[AEEA][γGlu][AEEA][Aun]-OH; thioether N-14) | 28.2 |  |
| CCCCCCN1CC(=O)N[C@@H](Cc2ccc(O)cc2)C(=O)N[C@@H](Cc2ccc(C(=O)O)cc2)C(=O)N[C@@H](CC(N)=O)C(=O)N[C@@H](CCCNC(=N)N)C(=O)N(C)[C@@H](CCCC)C(=O)N[C@@H](CCCCC)C(=O)N2CCC[C@H]2C(=O)N[C@@H](C(C)(C)C)C(=O)N[C@@H](CC(=O)O)C(=O)N[C@H](C(N)=O)CSCC(=O)N[C@@H](Cc2ccccc2)C(=O)N[C@@H](Cc2c[nH]c3ccccc23)C(=O)N[C@@H](CC(=O)O)C1=O [compound 1167] ({CH2CO}-FWD[NHexGly]Y[Phe(4-COOH)]NR[NMeNle][Ahp(2)]P[Tle]DC-NH2; thioether N-14) | 38.8 |  |
